From patent publication EP2676962A1, “Derivatives of 1-aminoalkylphosphonate diaryl esters, method of 1-aminoalkylphosphonate diaryl ester derivatives preparation and their application” (priority 2012, dated 2013)
Where two headings read alike, the source gives them in different places.

Assays:
Type in all cases: biochemical
proteinase 3 (PR3) = target: T1, proteinase 3 (PR3) (Homo sapiens, UniProt P24158); assay: Inhibitory activity toward proteinase 3, fluorogenic substrate, microplate reader
T1 sequence (P24158 28-248): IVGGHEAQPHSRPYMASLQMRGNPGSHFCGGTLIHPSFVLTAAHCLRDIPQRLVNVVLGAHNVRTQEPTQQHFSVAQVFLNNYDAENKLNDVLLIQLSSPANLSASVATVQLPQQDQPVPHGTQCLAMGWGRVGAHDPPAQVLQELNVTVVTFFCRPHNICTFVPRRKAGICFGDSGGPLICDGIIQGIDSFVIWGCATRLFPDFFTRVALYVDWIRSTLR
Procedure: (§1) The biological activity of peptidyl derivatives of phosphonic analogs of valine, alanine, phenylalanine, 4-guanidinephenylglycine, leucine, and 1-aminobutyric acid, containing the N-terminal biotin residue were tested for their ability to inhibit proteolytic activity of selected serine proteases, and the control cysteine proteases. All tests were performed using a microplate reader. As enzyme substrates fluorescent peptides were used. The method to measure the activity of the compounds obtained are described below for each of the enzymes tested: human neutrophil elastase (HNE), porcine pancreatic elastase (PPE), subtilisin (Sub), cathepsin G (CatG), proteinase 3 (PR3), chymotrypsin (ChTry) trypsin (Try), papain (Pap) and cathepsin L (CatL). Measurement of the inhibitory activity was performed at different inhibitor concentrations ranging from 12.5 nM to 2000nm.
Measurement of inhibitory activity of compounds toward proteinase 3(PR3).
(§2) The inhibitory activity assay is performed at 37°C in 0,1M Tric-HCl, 0,5M NaCl buffer, pH 7,5, within 10 min after initial pre-incubation of the enzyme with inhibitor tested at 37°C for 10 min. The enzyme concentration is 17nM. Substrate used Abz-Tyr-Tyr-Abu-Anb-NH2 at 30µM. Measurement is taken at an excitation wavelength of 325nm and 400nm emission.
(§3) The IC50 value is the concentration of inhibitor required to inhibit half of the enzyme activity after 10 minutes incubation.

subtilisin (Sub) [1] = target: T2, subtilisin (Sub) (Bacillus licheniformis, UniProt P00780); assay: Inhibitory activity toward subtilisin, fluorogenic substrate, microplate reader
T2 sequence (P00780 106-379): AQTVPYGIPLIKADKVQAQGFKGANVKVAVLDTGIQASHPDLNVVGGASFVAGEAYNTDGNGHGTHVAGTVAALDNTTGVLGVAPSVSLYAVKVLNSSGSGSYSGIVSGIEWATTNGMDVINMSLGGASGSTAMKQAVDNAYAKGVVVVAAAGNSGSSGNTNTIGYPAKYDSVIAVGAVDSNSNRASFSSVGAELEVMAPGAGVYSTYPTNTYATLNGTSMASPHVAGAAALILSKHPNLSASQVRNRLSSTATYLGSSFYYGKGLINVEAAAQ
Procedure: as §1
Measurement of inhibitory activity of compounds toward subtilisin (Sub).
(§4) The inhibitory activity assay is performed at 37°C in 0,05M Tris-HCl, 1M NaCl, 0,01% Triton X-100 buffer, pH 7,5, within 10 min after initial pre-incubation of the enzyme with inhibitor tested at 37°C for 10 min. The enzyme concentration is 5nM. Substrate used Me-Suc-Ala-Ala-Pro-Phe-AMC at 5µM. Measurement is taken at an excitation wavelength of 350nm and 460nm emission.
as §3

[2] = target: T3, human neutrophil elastase (HNE) (Homo sapiens, UniProt P08246); assay: Inhibitory activity toward human neutrophil elastase, fluorogenic substrate, microplate reader
T3 sequence (P08246 30-267): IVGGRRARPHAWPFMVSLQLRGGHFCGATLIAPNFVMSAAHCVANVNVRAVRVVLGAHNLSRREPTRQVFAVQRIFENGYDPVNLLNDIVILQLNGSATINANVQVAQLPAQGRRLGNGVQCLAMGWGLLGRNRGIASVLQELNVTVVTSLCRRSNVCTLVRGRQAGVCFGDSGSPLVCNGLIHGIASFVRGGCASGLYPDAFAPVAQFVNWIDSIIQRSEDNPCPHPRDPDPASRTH
Procedure: as §1
Measurement of inhibitory activity of compounds toward human neutrophil elastase (HNE).
(§5) The inhibitory activity assay is performed at 37°C in 0,01M HEPES, 0,5M NaCl, 0,03% Triton X-100 buffer, pH 7,5, within 10 min after initial pre-incubation of the enzyme with inhibitor tested at 37°C for 10 min. The enzyme concentration is 0,0025U/ml. Substrate used Me-Suc-Ala-Ala-Pro-Val-AFC at 25µM. Measurement is taken at an excitation wavelength of 400nm and 505nm emission.
as §3

subtilisin (Sub) [3] = target: T2, subtilisin (Sub); assay: Inhibitory activity toward subtilisin, fluorogenic substrate, microplate reader; details: 10 min, pH 7.5, read-out: Sub Kobs/[I]
cathepsin G (CatG) = target: T4, cathepsin G (CatG) (Homo sapiens, UniProt P08311); assay: Inhibitory activity toward cathepsin G, fluorogenic substrate, microplate reader; details: read-out: Cat G IC50; 10 min pre-incubation at 37°C, pH 7,5, MCA-Phe-Val-Thr-Gnf-Ser-Trp-Anb-NH2 2.5µM; NI = brak inhibicji (no inhibition)
T4 sequence (P08311 21-244): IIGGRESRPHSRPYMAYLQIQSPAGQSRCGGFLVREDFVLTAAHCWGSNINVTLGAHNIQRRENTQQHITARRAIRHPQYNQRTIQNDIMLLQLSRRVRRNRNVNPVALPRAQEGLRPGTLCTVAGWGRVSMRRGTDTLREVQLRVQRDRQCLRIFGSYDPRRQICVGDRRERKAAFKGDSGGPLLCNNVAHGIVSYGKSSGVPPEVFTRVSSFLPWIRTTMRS
Procedure: as §1
Measurement of inhibitory activity of compounds toward cathepsin G (CatG).
as §2, with “100nM.” for “17nM.”, “MCA-Phe-Val-Thr-Gnf-Ser-Trp-Anb-NH2” for “Abz-Tyr-Tyr-Abu-Anb-NH2”, “2.5µM.” for “30µM.”
as §3

[4] = target: porcine pancreatic elastase (PPE) (Sus scrofa, UniProt P00772); assay: Inhibitory activity toward porcine pancreatic elastase, fluorogenic substrate, microplate reader
porcine pancreatic elastase (PPE), sequence (P00772 27-266): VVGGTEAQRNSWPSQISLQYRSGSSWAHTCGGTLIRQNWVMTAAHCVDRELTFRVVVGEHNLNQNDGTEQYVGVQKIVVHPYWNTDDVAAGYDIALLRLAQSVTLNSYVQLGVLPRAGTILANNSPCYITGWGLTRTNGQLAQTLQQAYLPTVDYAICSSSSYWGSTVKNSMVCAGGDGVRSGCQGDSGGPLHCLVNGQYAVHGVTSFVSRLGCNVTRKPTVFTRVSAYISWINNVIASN
Procedure: as §1
Measurement of inhibitory activity of compounds toward porcine pancreatic elastase (PPE).
as §4, with “0,01M” for “0,05M”, “0,05%” for “1M NaCl, 0,01%”, “8,5,” for “7,5,”, “60nM.” for “5nM.”, “Me-Suc-Ala-Ala-Pro-Val-AMC” for “Me-Suc-Ala-Ala-Pro-Phe-AMC”, “100µM.” for “5µM.”
as §3

trypsin (Try) = target: T5, trypsin (Try) (Bos taurus, UniProt P00760); assay: Inhibitory activity toward trypsin, fluorogenic substrate, microplate reader; details: 10 min pre-incubation at 37°C, pH 7,5, Cbz-Arg-AFC 100µM; NI = brak inhibicji (no inhibition)
T5 sequence (P00760 24-246): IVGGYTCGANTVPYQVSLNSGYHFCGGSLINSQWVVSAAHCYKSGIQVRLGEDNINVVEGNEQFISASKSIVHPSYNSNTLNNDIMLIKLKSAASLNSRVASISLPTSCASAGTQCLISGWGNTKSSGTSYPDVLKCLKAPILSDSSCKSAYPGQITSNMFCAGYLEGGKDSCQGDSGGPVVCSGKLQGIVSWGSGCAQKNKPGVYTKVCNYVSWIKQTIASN
Procedure: as §1
Measurement of inhibitory activity of compounds toward trypsin (Try).
as §5, with “0,1M” for “0,01M”, “25nM.” for “0,0025U/ml.”, “Cbz-Arg-AFC” for “Me-Suc-Ala-Ala-Pro-Val-AFC”, “100µM.” for “25µM.”
as §3

chymotrypsin (ChTry) = chymotrypsin (ChTry) (Bos taurus, UniProt P00766); assay: Inhibitory activity toward chymotrypsin, fluorogenic substrate, microplate reader; details: 10 min pre-incubation at 37°C, pH 7,5, Suc-Ala-Ala-Pro-Phe-AMC 5µM; NI = brak inhibicji (no inhibition)
Procedure: as §1
Measurement of inhibitory activity of compounds toward […] (ChyTry).
as §2, with “HEPES,” for “Tric-HCl,”, “3nM.” for “17nM.”, “Suc-Ala-Ala-Pro-Phe-AMC” for “Abz-Tyr-Tyr-Abu-Anb-NH2”, “5µM.” for “30µM.”, “350nm” for “325nm”, “460nm” for “400nm”
as §3

Structure (SMILES)	IC50 (proteinase 3 (PR3); read-out: PR3 IC50, 10 min pre-incubation at 37°C, pH 7,5, Abz-Tyr-Tyr-Abu-Anb-NH2 30µM, NI = brak inhibicji (no inhibition))	IC50 (subtilisin (Sub) [1])	IC50 ([2]; read-out: HNE IC50, 10 min pre-incubation at 37°C, pH 7,5, Me-Suc-Ala-Ala-Pro-Val-AFC 25µM, NI = brak inhibicji (no inhibition))	kinact/KI (subtilisin (Sub) [3])	IC50 (cathepsin G (CatG))	IC50 ([4]; read-out: PPE IC50, 10 min pre-incubation at 37°C, pH 8,5, Me-Suc-Ala-Ala-Pro-Val-AMC 100µM, NI = brak inhibicji (no inhibition))	Try Kobs/[I] (trypsin (Try))	IC50 (proteinase 3 (PR3))	PR3 Kobs/[I] (proteinase 3 (PR3); 10 min pre-incubation at 37°C, pH 7,5, Abz-Tyr-Tyr-Abu-Anb-NH2 30µM, NI = brak inhibicji (no inhibition))	Sub Kobs/[I] (subtilisin (Sub) [1]; 10 min pre-incubation at 37°C, pH 7,5, Me-Suc-Ala-Ala-Pro-Phe-AMC 5µM, NI = brak inhibicji (no inhibition))	IC50 [2]	HNE Kobs/[I] ([2]; 10 min pre-incubation at 37°C, pH 7,5, Me-Suc-Ala-Ala-Pro-Val-AFC 25µM, NI = brak inhibicji (no inhibition))	IC50 [4]	ChyTr Kobs/[I] (chymotrypsin (ChTry))
CC(C)CC(NC(=O)C1CCCN1C(=O)C(NC(=O)CCCCC1SCC2NC(=O)NC21)C(C)C)P(=O)(Oc1ccccc1)Oc1ccccc1 (stereo not shown) [Compound 7, diphenyl (3-methyl-1-(1-(3-methyl-2-(5-(2-oxohexahydro-1H-thieno[3,4-d]imidazol-4-yl)pentanamido)butanoyl)pyrrolidine-2-carboxamido)butyl)phosphonate]	> 5000 nM	76.5 ± 1.65 nM	> 5000 nM	15000 M⁻¹ s⁻¹	> 5000 nM	> 5000 nM								
CCC(NC(=O)C1CCCN1C(=O)C(NC(=O)CCCCC1SCC2NC(=O)NC21)C(C)C)P(=O)(Oc1ccc(SC)cc1)Oc1ccc(SC)cc1 (stereo not shown) [Compound 13, bis(4-(methylthio)phenyl) (1-(1-(3-methyl-2-(5-(2-oxohexahydro-1H-thieno[3,4-d]imidazol-4-yl)pentanamido)butanoyl)pyrrolidine-2-carboxamido)propyl)phosphonate]		147 ± 4 nM			> 5000 nM		3*10^2 M^-1S^-1	227 ± 17 nM	1.0*10^4 M^-1S^-1	7.8*10^3 M^-1S^-1	2.75 ± 0.05 nM	4.2*10^5 M^-1S^-1	23.5 ± 1.95 nM	1.2*10^3 M^-1S^-1
